Source: ChEMBL document CHEMBL5137070, “N-2-(Phenylamino) Benzamide Derivatives as Dual Inhibitors of COX-2 and Topo I Deter Gastrointestinal Cancers via Targeting Inflammation and Tumor Progression” (J Med Chem, 2022)
Active and inactive are the calls of the source.

How the values were obtained:
[1] = system: CT26.WT; test: Antiproliferative activity against mouse CT26.WT cells assessed as reduction in cell proliferation incubated for 48 hrs by MTT assay; assay type: functional, cell-based
[2] = system: RKO; test: Antiproliferative activity against human RKO cells assessed as reduction in cell proliferation incubated for 48 hrs by MTT assay; assay type: functional, cell-based
[3] = system: HT-29; test: Antiproliferative activity against human HT-29 cells assessed as reduction in cell proliferation incubated for 48 hrs by MTT assay; assay type: functional, cell-based; settings: HT-29, 48 h
[4] = system: HGC-27; test: Antiproliferative activity against human HGC-27 cells assessed as reduction in cell proliferation incubated for 48 hrs by MTT assay; assay type: functional, cell-based; settings: HGC-27, 48 h
[5] = system: SGC-7901; test: Antiproliferative activity against human SGC-7901 cells assessed as reduction in cell proliferation incubated for 48 hrs by MTT assay; assay type: functional, cell-based; settings: SGC-7901, 48 h
[6] = biological target: T1, DNA topoisomerase 1 (Homo sapiens) (UniProt P11387); test: Inhibition of human topoisomerase I assessed as DNA unwinding using DNA pBR322 as substrate at 2 uM incubated for 30 mins by ethidium bromide staining based agarose gel electrophoresis
T1 sequence (whole entry): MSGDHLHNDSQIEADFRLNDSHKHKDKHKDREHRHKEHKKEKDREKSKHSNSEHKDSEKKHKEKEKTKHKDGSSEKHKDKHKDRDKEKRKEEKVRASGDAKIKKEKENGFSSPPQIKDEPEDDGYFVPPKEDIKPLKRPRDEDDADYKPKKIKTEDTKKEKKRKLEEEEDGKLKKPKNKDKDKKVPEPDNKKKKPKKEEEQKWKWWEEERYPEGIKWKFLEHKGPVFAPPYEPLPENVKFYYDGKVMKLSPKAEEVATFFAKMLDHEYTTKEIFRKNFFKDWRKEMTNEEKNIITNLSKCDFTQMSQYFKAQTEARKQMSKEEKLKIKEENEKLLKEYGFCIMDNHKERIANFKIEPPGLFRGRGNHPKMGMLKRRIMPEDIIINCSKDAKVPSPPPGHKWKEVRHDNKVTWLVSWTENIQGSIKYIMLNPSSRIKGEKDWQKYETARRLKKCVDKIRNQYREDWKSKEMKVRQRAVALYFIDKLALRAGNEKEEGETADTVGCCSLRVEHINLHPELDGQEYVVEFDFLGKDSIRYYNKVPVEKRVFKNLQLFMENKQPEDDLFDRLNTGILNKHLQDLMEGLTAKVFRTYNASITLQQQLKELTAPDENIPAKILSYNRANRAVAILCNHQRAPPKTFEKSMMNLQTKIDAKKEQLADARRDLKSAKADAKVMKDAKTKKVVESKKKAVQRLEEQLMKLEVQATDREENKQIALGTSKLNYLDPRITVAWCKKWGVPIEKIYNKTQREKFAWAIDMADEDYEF

[7] = system: HGC-27; test: Effect on cell morphology in human HGC-27 cells assessed as appearance of smaller cells at 10 uM incubated for 48 hrs by giemsa staining based microscopic analysis; assay type: functional
[8] = biological target: T2, DNA topoisomerase 1 (Homo sapiens, UniProt P11387); test: Inhibition of human topoisomerase I assessed as DNA relaxation using DNA pBR322 as substrate incubated for 30 mins by ethidium bromide staining based agarose gel electrophoresis
T2 sequence (P11387 whole entry): T1 sequence (whole entry)

[9] = system: HGC-27; test: Antiproliferative activity against human HGC-27 cells assessed as clone formation at 0.37 to 3.3 uM incubated for 4 days by crystal violet staining based analysis; assay type: functional, cell-based; settings: dose 0.37-3.3 µM, time 4.0 day
[10] = system: RKO; test: Antiproliferative activity against human RKO cells assessed as clone formation at 0.04 to 3.3 uM incubated for 4 days by crystal violet staining based analysis; assay type: functional, cell-based; settings: dose 0.04-3.3 µM, time 4.0 day
[11] = system: HGC-27; test: Effect on cell morphology in human HGC-27 cells assessed as appearance of round cells at 10 uM incubated for 48 hrs by giemsa staining based microscopic analysis; assay type: functional
[12] = system: HGC-27; test: Effect on cell morphology in human HGC-27 cells assessed as lose of adherence at 10 uM incubated for 48 hrs by giemsa staining based microscopic analysis; assay type: functional
[13] = system: HGC-27; test: Effect on cell morphology in human HGC-27 cells assessed as condensed morphology at 10 uM incubated for 48 hrs by giemsa staining based microscopic analysis; assay type: functional
[14] = system: HGC-27; test: Effect on cell morphology in human HGC-27 cells assessed as contracted nucleus at 10 uM incubated for 48 hrs by giemsa staining based microscopic analysis; assay type: functional
[15] = system: RKO; test: Effect on cell morphology in human RKO cells assessed as appearance of smaller cells at 10 uM incubated for 48 hrs by giemsa staining based microscopic analysis; assay type: functional
[16] = system: RKO; test: Effect on cell morphology in human RKO cells assessed as appearance of round cells at 10 uM incubated for 48 hrs by giemsa staining based microscopic analysis; assay type: functional
[17] = system: RKO; test: Effect on cell morphology in human RKO cells assessed as lose of adherence at 10 uM incubated for 48 hrs by giemsa staining based microscopic analysis; assay type: functional
[18] = system: RKO; test: Effect on cell morphology in human RKO cells assessed as condensed morphology at 10 uM incubated for 48 hrs by giemsa staining based microscopic analysis; assay type: functional
[19] = system: RKO; test: Effect on cell morphology in human RKO cells assessed as contracted nucleus at 10 uM incubated for 48 hrs by giemsa staining based microscopic analysis; assay type: functional
[20] = system: RKO; test: Induction of mitochondrial membrane loss in human RKO at 1.1 to 10 uM and measured after 36 hrs by TMRE dye based flow cytometry; assay type: functional, cell-based; settings: dose 1.1-10 µM, DDE = dose-dependent effect
[21] = system: HGC-27; test: Induction of mitochondrial membrane loss in human HGC-27 at 1.1 to 10 uM and measured after 36 hrs by TMRE dye based flow cytometry; assay type: functional, cell-based; settings: dose 1.1-10 µM, DDE = dose-dependent effect
[22] = system: RKO; test: Induction of cell cycle arrest in human RKO cells assessed as accumulation at G2/M phase at 3.3 to 10 uM for 24 hrs by propidium iodide staining based flow cytometry; assay type: functional; settings: dose 3.3-10 µM
[23] = system: HGC-27; test: Induction of cell cycle arrest in human HGC-27 cells assessed as accumulation at G2/M phase at 3.3 to 10 uM for 24 hrs by propidium iodide staining based flow cytometry; assay type: functional; settings: dose 3.3-10 µM
[24] = system: RKO; test: Antiproliferative activity against human RKO cells assessed as cell viability at <= 0.41 uM for 48 hrs by MTT assay; assay type: functional; settings: up to 0.41 µM
[25] = system: HGC-27; test: Antiproliferative activity against human HGC-27 cells assessed as cell viability at <= 0.41 uM for 48 hrs by MTT assay; assay type: functional; settings: up to 0.41 µM
[26] = system: CT26.WT; test: Antiproliferative activity against mouse CT26.WT cells assessed as cell viability at 1.11 uM for 48 hrs by MTT assay; assay type: functional; settings: read-out: Activity
[27] = system: RKO; test: Anti-migration activity against human RKO cells assessed as decrease in cell migration rate at 0.37 uM for 48 hrs by crystalline violet staining based assay; assay type: functional
[28] = system: HGC-27; test: Anti-migration activity against human HGC-27 cells assessed as decrease in cell migration rate at 0.37 uM for 48 hrs by crystalline violet staining based assay; assay type: functional
[29] = system: RKO; test: Anti-migration activity against human RKO cells assessed as inhibition of cell migration at 0.37 uM and measured after 24 hrs by wound healing assay; assay type: functional, cell-based
[30] = system: RAW264.7; test: Cytotoxicity against mouse RAW264.7 cells assessed as reduction in cell viability at <=11.11 for 24 hrs by MTT assay; assay type: toxicity, cell-based; settings: raw264.7, 24 h
[31] = system: RAW264.7; test: Antiinflammatory activity against LPS-stimulated mouse RAW264.7 cells assessed decrease in IL-1beta release at 6.6 uM incubated for 1 hrs followed by LPS stimulation and measured after 24 hrs by ELISA relative to control; assay type: functional, cell-based; settings: time 25.0 hrs
[32] = system: RAW264.7; test: Inhibition of LPS induced NO production in mouse RAW264.7 cells at 6.6 uM incubated for 1 hrs followed by LPS stimulation and measured after 24 hrs by Griess reagent based assay; assay type: functional, cell-based; settings: time 25.0 hrs
[33] = system: RAW264.7; test: Antiinflammatory activity in mouse RAW264.7 cells assessed as reduction in LPS-induced COX-2 expression at 6.6 uM incubated for 1 hrs followed by LPS stimulation and measured after 24 hrs by western blot analysis; assay type: functional, cell-based; settings: time 25.0 hrs
[34] = system: RKO; test: Induction of apoptosis in human RKO cells at 1.1 to 10 uM for 24 hrs by Annexin V-FITC/PI staining based flow cytometry; assay type: functional, cell-based; settings: dose 1.1-10 µM
[35] = system: HGC-27; test: Induction of apoptosis in human HGC-27 cells at 1.1 to 10 uM for 24 hrs by Annexin V-FITC/PI staining based flow cytometry; assay type: functional, cell-based; settings: dose 1.1-10 µM

Cc1c(Cl)cccc1Nc1ccc(F)cc1C(=O)NCc1ccc(O)c(F)c1
14.3 µM: IC50 [5]
6.74 µM: IC50 [2]
41.1%: inhibition [6]
>80%: Activity [24] | Activity [25]
4.79 µM: IC50 [8]
8.88 µM: IC50 [1]
active: Activity [7] | Activity [9] | Activity [10] | Activity [11] | Activity [12] | Activity [13] | Activity [14] | Activity [15] | Activity [16] | Activity [17] | Activity [18] | Activity [19] | Activity [20] Dde | Activity [21] Dde | Activity [22] | Activity [23] | Activity [27] | Activity [28] | Activity [29] | Activity [31] | inhibition [32] | Activity [33] | Activity [34] | Activity [35]
> 80%: viability at 1.11 µM [26] | Activity [30]
15.8 µM: IC50 [3]
7.23 µM: IC50 [4]
